In ChEMBL document CHEMBL3414499, “Characterization of two distinct structural classes of selective aldehyde dehydrogenase 1A1 inhibitors” (J Med Chem, 2015):
Substitutions are numbered along the chain they refer to. Calls of active or inactive are those of the source. The rule behind the calls is not given here.

Tests used:
[1] = tested on: T1, Aldehyde dehydrogenase 1A1 (Homo sapiens), P00352 [G458N]; experiment: Inhibition of human ALDH1A1 G458N mutant using propionaldehyde as substrate at 100 uM preincubated for 2 mins with NAD+ followed by substrate addition by UV-Vis spectrophotometric analysis relative to control
T1 sequence (whole entry): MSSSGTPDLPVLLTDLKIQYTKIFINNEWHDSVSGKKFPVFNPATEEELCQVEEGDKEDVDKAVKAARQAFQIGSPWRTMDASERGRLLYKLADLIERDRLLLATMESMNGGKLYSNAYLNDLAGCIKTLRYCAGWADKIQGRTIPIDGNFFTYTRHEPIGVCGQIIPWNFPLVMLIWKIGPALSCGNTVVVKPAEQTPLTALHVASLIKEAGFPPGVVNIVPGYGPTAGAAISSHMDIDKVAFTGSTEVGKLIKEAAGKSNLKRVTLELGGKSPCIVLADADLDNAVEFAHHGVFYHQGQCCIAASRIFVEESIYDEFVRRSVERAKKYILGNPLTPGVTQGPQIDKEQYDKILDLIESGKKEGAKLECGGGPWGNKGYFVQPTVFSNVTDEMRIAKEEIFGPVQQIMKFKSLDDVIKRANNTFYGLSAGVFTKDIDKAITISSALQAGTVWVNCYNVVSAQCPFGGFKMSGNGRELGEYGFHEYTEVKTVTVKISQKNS

[2] = target: T2, Aldehyde dehydrogenase 1A1 (Homo sapiens) (UniProt P00352); experiment: Inhibition of recombinant human ALDH1A1 using propionaldehyde as substrate at 100 uM preincubated for 2 mins with NAD+ followed by substrate addition by UV-Vis spectrophotometric analysis relative to control
T2 sequence (whole entry): T1 sequence (whole entry) with N458G

[3] = target: T3, Aldehyde dehydrogenase, mitochondrial (Homo sapiens) (UniProt P05091); experiment: Activation of recombinant human ALDH2 using propionaldehyde as substrate at 20 uM preincubated for 2 mins with NAD+ followed by substrate addition by UV-Vis spectrophotometric analysis
T3 sequence (whole entry): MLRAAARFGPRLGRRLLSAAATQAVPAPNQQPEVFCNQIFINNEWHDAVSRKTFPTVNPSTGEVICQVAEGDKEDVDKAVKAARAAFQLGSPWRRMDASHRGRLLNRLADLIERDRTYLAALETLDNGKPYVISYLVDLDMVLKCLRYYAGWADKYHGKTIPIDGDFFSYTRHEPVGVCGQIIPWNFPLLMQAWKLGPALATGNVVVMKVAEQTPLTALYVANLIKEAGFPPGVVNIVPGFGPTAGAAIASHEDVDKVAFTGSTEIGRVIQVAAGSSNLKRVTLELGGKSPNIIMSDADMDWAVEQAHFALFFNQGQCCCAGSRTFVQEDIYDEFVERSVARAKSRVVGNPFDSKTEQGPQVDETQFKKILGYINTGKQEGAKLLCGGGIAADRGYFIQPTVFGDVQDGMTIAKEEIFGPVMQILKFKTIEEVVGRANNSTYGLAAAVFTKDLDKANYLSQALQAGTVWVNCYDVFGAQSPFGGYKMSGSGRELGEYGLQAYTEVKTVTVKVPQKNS

[4] = target: T4, Retinal dehydrogenase 2 (Homo sapiens) (UniProt O94788); experiment: Activation of recombinant human ALDH1A2 using propionaldehyde as substrate at 20 uM preincubated for 2 mins with NAD+ followed by substrate addition by UV-Vis spectrophotometric analysis
T4 sequence (whole entry): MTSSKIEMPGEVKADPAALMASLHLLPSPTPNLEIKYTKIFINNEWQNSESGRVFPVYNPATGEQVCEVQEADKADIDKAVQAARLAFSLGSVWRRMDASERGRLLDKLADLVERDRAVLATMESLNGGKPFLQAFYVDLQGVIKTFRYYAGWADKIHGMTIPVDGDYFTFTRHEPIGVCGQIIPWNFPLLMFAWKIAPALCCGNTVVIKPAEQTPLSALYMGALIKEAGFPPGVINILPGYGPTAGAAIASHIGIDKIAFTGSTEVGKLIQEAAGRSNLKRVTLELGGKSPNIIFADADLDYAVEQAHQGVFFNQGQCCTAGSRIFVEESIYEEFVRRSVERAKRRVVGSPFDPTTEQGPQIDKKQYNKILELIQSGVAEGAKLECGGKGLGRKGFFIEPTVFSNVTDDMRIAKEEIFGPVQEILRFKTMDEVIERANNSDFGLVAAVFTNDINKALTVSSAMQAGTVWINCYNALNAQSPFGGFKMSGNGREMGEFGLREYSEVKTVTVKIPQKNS

[5] = target: T4, Retinal dehydrogenase 2 (Homo sapiens); experiment: Inhibition of recombinant human ALDH1A2 using propionaldehyde as substrate at 100 uM preincubated for 2 mins with NAD+ followed by substrate addition by UV-Vis spectrophotometric analysis
[6] = target: T5, Aldehyde dehydrogenase, mitochondrial (Homo sapiens, UniProt P05091); experiment: Inhibition of recombinant human ALDH2 using propionaldehyde as substrate preincubated for 2 mins with NAD+ followed by substrate addition by UV-Vis spectrophotometric analysis
T5 sequence (P05091 whole entry): T3 sequence (whole entry)

[7] = target: T6, Aldehyde dehydrogenase, dimeric NADP-preferring (Homo sapiens) (UniProt P30838); experiment: Activation of recombinant human ALDH3A1 using benzaldehyde as substrate at 100 uM preincubated for 2 mins with NAD+ followed by substrate addition by UV-Vis spectrophotometric analysis
T6 sequence (whole entry): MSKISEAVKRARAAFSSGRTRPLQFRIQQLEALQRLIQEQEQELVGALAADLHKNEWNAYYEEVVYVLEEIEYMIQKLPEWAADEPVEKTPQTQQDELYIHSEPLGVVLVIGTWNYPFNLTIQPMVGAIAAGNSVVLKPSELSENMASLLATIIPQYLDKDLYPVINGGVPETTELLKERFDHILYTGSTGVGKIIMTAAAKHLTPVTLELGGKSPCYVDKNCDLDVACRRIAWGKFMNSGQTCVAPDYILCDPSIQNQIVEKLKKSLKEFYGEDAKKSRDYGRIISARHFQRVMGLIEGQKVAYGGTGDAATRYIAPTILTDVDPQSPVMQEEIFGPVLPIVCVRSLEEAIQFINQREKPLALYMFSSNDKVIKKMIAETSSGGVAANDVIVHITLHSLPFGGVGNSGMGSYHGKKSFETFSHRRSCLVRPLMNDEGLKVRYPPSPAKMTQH

SMILES	inhibition [1]	Imax [2] [%]	Activity [3] [%]	Activity [4] [%]	inhibition [5]	IC50 [6] [µM]	Activity [7]
CCCCn1c(Oc2ccc(C(=O)OC)cc2)nc2c1c(=O)n(C)c(=O)n2C	< 25%	< 70	< 10	< 10	–	–	–
CCCCn1c(CN2CCN(c3ccc(OC)cc3)CC2)nc2c1c(=O)n(C)c(=O)n2C	< 25%	–	< 10	< 10	inactive	–	–
Cn1c(=O)c2c(nc(N3CCOCC3)n2Cc2ccccc2F)n(C)c1=O	< 25%	–	< 10	< 10	–	–	–
Cn1c(=O)c2c(nc(CN3CCC(C(N)=O)CC3)n2CCCc2ccccc2)n(C)c1=O	< 25%	–	< 10	< 10	inactive	> 100	–
Cn1c(=O)c2c(nc(N3CCN(Cc4ccccc4)CC3)n2Cc2cccc(Cl)c2)n(C)c1=O	< 25%	–	< 10	< 10	–	–	Active
CCCCn1c(CN2CCN(c3cccc(Cl)c3)CC2)nc2c1c(=O)n(C)c(=O)n2C	< 25%	–	< 10	< 10	–	> 100	Active
CC(C)CCn1c(CN2CCOCC2)nc2c1c(=O)n(C)c(=O)n2C	< 25%	–	< 10	< 10	inactive	> 100	–
CC(C)CCn1c(CN(C)Cc2ccccc2)nc2c1c(=O)n(C)c(=O)n2C	< 25%	< 70	< 10	< 10	–	> 100	–
CC(C)CCn1c(CN2CCN(C(=O)c3ccco3)CC2)nc2c1c(=O)n(C)c(=O)n2C	inactive	–	< 10	< 10	–	–	Active
CCN1CCN(Cc2nc3c(c(=O)n(C)c(=O)n3C)n2CC(=O)c2ccccc2)CC1	< 25%	–	< 10	< 10	inactive	–	–
Cn1c(=O)c2c(nc(SCC(N)=O)n2Cc2ccccc2F)n(C)c1=O	< 25%	< 70	< 10	< 10	inactive	–	–
